Values of other authors, collected in patent US20040002079A1.

Details: steady state, red cells vs plasma, different individuals

SMILES: [Li] [lithium, Lithium]
- lithium ratio [Li]cell/[Li]pl: 0.2 to 0.8
